# Experimental data from patent US11441162B2, “Human gut microbiome-derived biosynthetic enzymes for production of fatty acid amides” (Massachusetts Institute of Technology, priority 2019, dated 2022).
# pEC50, pIC50: −log10 of the molar value. Read-outs that look alike come from different tables or passages of the source.
# Experiments:
# GPR132 [1] = target: T1, GPR132 (Homo sapiens, UniProt Q9UNW8); settings: previously reported human microbiome-derived FAA GPCR modulator; read-out: GPR132 agonist at (previously reported); cited from earlier work
# T1 sequence (Q9UNW8 1-380): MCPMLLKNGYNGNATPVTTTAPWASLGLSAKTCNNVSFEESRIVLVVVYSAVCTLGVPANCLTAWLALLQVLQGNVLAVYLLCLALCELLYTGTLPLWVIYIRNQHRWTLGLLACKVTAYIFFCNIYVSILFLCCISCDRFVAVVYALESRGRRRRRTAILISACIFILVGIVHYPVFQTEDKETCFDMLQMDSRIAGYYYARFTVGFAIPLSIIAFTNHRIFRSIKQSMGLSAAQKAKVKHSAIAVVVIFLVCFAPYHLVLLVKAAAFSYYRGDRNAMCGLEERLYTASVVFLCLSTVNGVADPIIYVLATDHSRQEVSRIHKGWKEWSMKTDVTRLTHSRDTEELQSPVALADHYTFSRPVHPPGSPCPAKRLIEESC
# [2] = test system: C protein of the L. clostridioforme, B. producta, C. celatum, C. sp pathways; experiment: Substrate panel assay, condensation activity on amine panel; format: biochemical, Clostridia; settings: highest amine substrate of the panel for these four pathways; α-linolenic acid as fatty acid
# Description: The human gut lumen consists of various fatty acid and amine substrates from different sources that the pathway can incorporate for FAA production. To characterize the preferred product, an in vitro substrate panel assay was set up to investigate substrate selectivity of the biosynthetic enzymes for each of the eight identified HMP-derived pathways (FIG. 2A). A and C enzyme activity was measured for defined fatty acid and amines, respectively, to determine the substrates that each pathway prefers to incorporate for FAA production (FIG. 2B-2C). A panel of 25 fatty acids and 53 biogenic amines derived from Clostridia, human cells, and human diet that are known to be abundant in the human gut was selected (FIG. 2D).^43,44,45,46,47 For consistency, FAA product level, instead of PPi level, was used as the metric of A activity for the panel assay by adding tryptamine for all query fatty acid substrates to measure the level of C-independent FAA formation based on the UV absorbance of the indole chromophore (FIG. 2B). […]
# For adenylation activity, adenylation and thiolation proteins (no condensation) were added with the query fatty acid substrate(s) and tryptamine as a UV-active chromophore. […] The reaction was mixed with equal volume of methanol, spun down at 21,000 g for 1 min, and analyzed with the same analytical LCMS run as described previously. […]
# EBI2/GPR183 = EBI2/GPR183 (Homo sapiens, UniProt P32249); experiment: Cell-based β-arrestin reporter assay (DiscoverX), EBI2 antagonist mode: panel at 10 uM and concentration-response; settings: for inhibition on EBI2 (concentration-response, in words): antagonist mode against 7α,25-diHC; for pIC50: in the presence of native agonist 7α,25-dihydroxycholesterol at 0.232 uM (EC80), ten concentrations 100 to 0.0051 uM, read-out: IC50, inhibitory activity on EBI2
# Description: FIGS. 31A-31H show GPCR activity assay of lauroyl tryptamine. a, Cell-based β-arrestin reporter assay (DiscoveRx) with a panel of 168 GPCRs with known ligands in agonist mode and antagonist mode, and also 73 orphan GPCRs in agonist mode at 10 uM. Agonist mode measures % activity of target GPCR by the compound, relative to the baseline value (0% activity) and maximum value with a known ligand, or twofold increase over baseline for orphan GPCR (100% activation). Antagonist mode measures % inhibition of target GPCR by the compound in the presence of a known ligand, relative to the value at the EC80 (0% inhibition) and basal value (100% inhibition). […] EBI2 antagonist activity (δ1%) is marked with an asterisk (*). b, Concentration-dose response curves of the inhibitory activity of lauroyl tryptamine, tryptamine, and lauric acid on EBI2 in the presence of the native agonist 7α,25-dihydroxycholesterol (7a,25-diHC) at 0.232 uM (EC80). […] IC50>100 uM for all three compounds. d, Concentration-dose response curves of the stimulatory activity of lauroyl tryptamine, tryptamine, and lauric acid on GPR132. […] For b, c, d, the curves span ten concentration points in duplicates from 100 to 0.0051 uM, with the error bar being the s.d. from duplicates. e, MS chromatogram (EIC ESI+[M+H]^+ m/z of lauroyl tryptamine, theoretical=343.2744, experimental=[…]) of the in vivo extract of E. rectale in RCM media (with no fed substrates). The samples are injected alongside a chemically synthesized and structurally verified standard. The * denotes lauroyl tryptamine. The production titer was determined to be 0.04 mg/L. f, Product titer of fatty acyl tryptamine from the in vivo extract of E. rectale in RCM, when fed with exogenous fatty acid (lauric acid, linoleic acid, oleic acid, docosahexaenoic acid, or α-linolenic acid). g, Mapping of human gut metatranscriptomic reads from subject subX316701492 (accession: SRX247340) onto a 80 kb region of the E. rectale genome centered on the FAA pathway (darker arrows, labeled “FAA”). The mean coverage of the 80 kb segment was 0.8 (SD=3.3), while the mean coverage of the FAA pathway by itself was 1.5 (SD=1.1). Housekeeping genes within this segment include tRNA synthetase (tR), carbohydrate metabolism (CM), and sugar transporter (ST) genes. h, Immunological and development role of the EBI2-oxysterol axis and its suppression by E. rectale-derived lauroyl tryptamine to possibly protect against IBD.
# FAAs are known to modulate diverse biological functions by interacting with human GPCRs. The products of the FAA screen are either known GPCR ligands or appear to structurally mimic these molecules (FIG. 30). The FAAs were analyzed for activity against a panel of known and orphan human GPCRs using the DiscoverX platform. […]
# P2RY4 = P2RY4 (Homo sapiens, UniProt P51582); experiment: Cell-based β-arrestin reporter assay (DiscoverX), P2RY4 antagonist mode: panel at 10 uM and concentration-response; settings: in the presence of native agonist UTP at 2.79 uM (EC80); ten concentrations 100 to 0.0051 uM; read-out: IC50, inhibitory activity on P2RY4
# Description: FIGS. 31A-31H show GPCR activity assay of lauroyl tryptamine. a, Cell-based β-arrestin reporter assay (DiscoveRx) with a panel of 168 GPCRs with known ligands in agonist mode and antagonist mode, and also 73 orphan GPCRs in agonist mode at 10 uM. Agonist mode measures % activity of target GPCR by the compound, relative to the baseline value (0% activity) and maximum value with a known ligand, or twofold increase over baseline for orphan GPCR (100% activation). Antagonist mode measures % inhibition of target GPCR by the compound in the presence of a known ligand, relative to the value at the EC80 (0% inhibition) and basal value (100% inhibition). […] The production titer was determined to be 0.04 mg/L. f, Product titer of fatty acyl tryptamine from the in vivo extract of E. rectale in RCM, when fed with exogenous fatty acid (lauric acid, linoleic acid, oleic acid, docosahexaenoic acid, or α-linolenic acid). g, Mapping of human gut metatranscriptomic reads from subject subX316701492 (accession: SRX247340) onto a 80 kb region of the E. rectale genome centered on the FAA pathway (darker arrows, labeled “FAA”). […]
# (§1) FAAs are known to modulate diverse biological functions by interacting with human GPCRs. […] The FAAs were analyzed for activity against a panel of known and orphan human GPCRs using the DiscoverX platform. […]
# GPR132 [3] = target: T1, GPR132; experiment: Cell-based β-arrestin reporter assay (DiscoverX), GPR132 agonist mode: orphan panel at 10 uM and concentration-response
# Description: FIGS. 31A-31H show GPCR activity assay of lauroyl tryptamine. a, Cell-based β-arrestin reporter assay (DiscoveRx) with a panel of 168 GPCRs with known ligands in agonist mode and antagonist mode, and also 73 orphan GPCRs in agonist mode at 10 uM. Agonist mode measures % activity of target GPCR by the compound, relative to the baseline value (0% activity) and maximum value with a known ligand, or twofold increase over baseline for orphan GPCR (100% activation). Antagonist mode measures % inhibition of target GPCR by the compound in the presence of a known ligand, relative to the value at the EC80 (0% inhibition) and basal value (100% inhibition). […] EBI2 antagonist activity (δ1%) is marked with an asterisk (*). b, Concentration-dose response curves of the inhibitory activity of lauroyl tryptamine, tryptamine, and lauric acid on EBI2 in the presence of the native agonist 7α,25-dihydroxycholesterol (7a,25-diHC) at 0.232 uM (EC80). […] IC50>100 uM for all three compounds. d, Concentration-dose response curves of the stimulatory activity of lauroyl tryptamine, tryptamine, and lauric acid on GPR132. […] For b, c, d, the curves span ten concentration points in duplicates from 100 to 0.0051 uM, with the error bar being the s.d. from duplicates. e, MS chromatogram (EIC ESI+[M+H]^+ m/z of lauroyl tryptamine, theoretical=343.2744, experimental=[…]) of the in vivo extract of E. rectale in RCM media (with no fed substrates). […] The production titer was determined to be 0.04 mg/L. f, Product titer of fatty acyl tryptamine from the in vivo extract of E. rectale in RCM, when fed with exogenous fatty acid (lauric acid, linoleic acid, oleic acid, docosahexaenoic acid, or α-linolenic acid). g, Mapping of human gut metatranscriptomic reads from subject subX316701492 (accession: SRX247340) onto a 80 kb region of the E. rectale genome centered on the FAA pathway (darker arrows, labeled “FAA”). […]
# as §1
# PRLHR = target: T2, PRLHR (Homo sapiens, UniProt P49683); experiment: Cell-based β-arrestin reporter GPCR panel (DiscoverX) at 10 uM, PRLHR; settings: compound at 10 uM
# T2 sequence (P49683 1-370): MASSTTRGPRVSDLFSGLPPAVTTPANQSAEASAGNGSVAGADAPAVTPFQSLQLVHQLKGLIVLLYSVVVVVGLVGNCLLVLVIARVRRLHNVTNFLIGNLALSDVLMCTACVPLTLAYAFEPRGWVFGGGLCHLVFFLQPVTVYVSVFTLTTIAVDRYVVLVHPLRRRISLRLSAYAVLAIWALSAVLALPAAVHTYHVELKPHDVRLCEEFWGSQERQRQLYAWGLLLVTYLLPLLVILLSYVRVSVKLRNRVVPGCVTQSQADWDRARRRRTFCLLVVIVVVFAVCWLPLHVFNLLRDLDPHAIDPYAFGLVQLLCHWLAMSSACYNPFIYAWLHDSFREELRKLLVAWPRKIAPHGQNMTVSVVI
# Description: (§2) Cell-based β-arrestin reporter assay (DiscoveRx) with a panel of 168 GPCRs with known ligands in agonist mode and antagonist mode, and also 73 orphan GPCRs in agonist mode at 10 uM. Agonist mode measures % activity of target GPCR by the compound, relative to the baseline value (0% activity) and maximum value with a known ligand, or twofold increase over baseline for orphan GPCR (100% activation). Antagonist mode measures % inhibition of target GPCR by the compound in the presence of a known ligand, relative to the value at the EC80 (0% inhibition) and basal value (100% inhibition).
# (§3) FAAs are known to modulate diverse biological functions by interacting with human GPCRs. The products of the FAA screen are either known GPCR ligands or appear to structurally mimic these molecules (FIG. 30). The FAAs were analyzed for activity against a panel of known and orphan human GPCRs using the DiscoverX platform. The major compound from the four human gut metagenome-derived pathways (oleoyl dopamine, oleoyl tyramine, oleoyl aminovaleric acid, and lauroyl tryptamine) were chemically synthesized and screened at 10 uM on a panel of 168 known GPCRs covering 60 distinct receptors in both agonist and antagonist mode and 73 orphan GPCRs in agonist mode. […]
# NPSR1b = target: T3, NPSR1b (Homo sapiens, UniProt Q6W5P4); experiment: Cell-based β-arrestin reporter GPCR panel (DiscoverX) at 10 uM, NPSR1b; settings: compound at 10 uM
# T3 sequence (Q6W5P4 1-377 isoform Q6W5P4-4): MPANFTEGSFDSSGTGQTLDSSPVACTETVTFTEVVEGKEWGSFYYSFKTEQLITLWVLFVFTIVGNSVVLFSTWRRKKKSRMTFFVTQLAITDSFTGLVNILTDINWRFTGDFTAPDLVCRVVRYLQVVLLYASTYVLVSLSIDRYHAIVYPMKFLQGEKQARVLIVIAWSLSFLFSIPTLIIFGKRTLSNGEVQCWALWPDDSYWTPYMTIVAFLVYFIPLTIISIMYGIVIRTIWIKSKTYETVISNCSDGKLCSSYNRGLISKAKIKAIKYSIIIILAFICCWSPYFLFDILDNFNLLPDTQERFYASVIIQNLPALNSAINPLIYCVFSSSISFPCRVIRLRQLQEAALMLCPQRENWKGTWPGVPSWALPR
# Description: as §2, §3
# PTGER4 = PTGER4 (Homo sapiens, UniProt P35408); experiment: Cell-based β-arrestin reporter GPCR panel (DiscoverX) at 10 uM, PTGER4; settings: antagonist mode, compound at 10 uM
# Description: as §2, §3
# [4] = agonist mode, ten concentrations 100 to 0.0051 uM, read-out: EC50, stimulatory activity on GPR132
# Chain of EBI2/GPR183 (P32249 whole entry): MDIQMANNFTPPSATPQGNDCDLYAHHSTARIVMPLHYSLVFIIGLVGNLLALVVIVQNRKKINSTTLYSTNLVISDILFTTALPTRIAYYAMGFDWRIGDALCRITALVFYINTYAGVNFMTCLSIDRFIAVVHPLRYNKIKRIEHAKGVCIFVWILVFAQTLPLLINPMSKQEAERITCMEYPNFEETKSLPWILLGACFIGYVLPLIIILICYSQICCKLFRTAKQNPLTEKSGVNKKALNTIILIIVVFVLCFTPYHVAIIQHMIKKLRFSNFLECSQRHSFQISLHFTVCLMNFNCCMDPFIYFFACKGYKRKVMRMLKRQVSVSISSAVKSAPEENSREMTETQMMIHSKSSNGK
# Chain of P2RY4 (P51582 whole entry): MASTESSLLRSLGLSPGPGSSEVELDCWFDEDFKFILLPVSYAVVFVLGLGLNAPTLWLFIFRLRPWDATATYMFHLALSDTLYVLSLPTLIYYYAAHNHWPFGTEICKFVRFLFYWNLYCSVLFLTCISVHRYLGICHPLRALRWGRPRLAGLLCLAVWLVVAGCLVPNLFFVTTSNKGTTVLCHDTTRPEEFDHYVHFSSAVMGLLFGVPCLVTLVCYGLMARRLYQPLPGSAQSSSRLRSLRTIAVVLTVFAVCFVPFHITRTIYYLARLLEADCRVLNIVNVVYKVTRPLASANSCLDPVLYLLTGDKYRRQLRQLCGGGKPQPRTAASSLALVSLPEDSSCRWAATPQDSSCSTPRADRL
# Chain of PTGER4 (P35408 whole entry): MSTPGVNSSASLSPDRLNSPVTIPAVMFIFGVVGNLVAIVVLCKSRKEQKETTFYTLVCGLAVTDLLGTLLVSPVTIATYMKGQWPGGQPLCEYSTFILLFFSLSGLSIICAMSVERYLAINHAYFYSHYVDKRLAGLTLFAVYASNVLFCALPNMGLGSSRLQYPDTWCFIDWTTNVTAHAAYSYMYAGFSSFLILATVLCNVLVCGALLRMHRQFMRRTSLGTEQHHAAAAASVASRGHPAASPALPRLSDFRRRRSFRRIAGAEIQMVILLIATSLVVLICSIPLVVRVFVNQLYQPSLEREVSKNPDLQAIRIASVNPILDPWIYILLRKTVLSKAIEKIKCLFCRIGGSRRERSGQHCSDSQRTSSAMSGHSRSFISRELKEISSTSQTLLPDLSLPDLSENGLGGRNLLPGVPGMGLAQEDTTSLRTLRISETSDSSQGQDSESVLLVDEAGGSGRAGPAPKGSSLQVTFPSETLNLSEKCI
molecule,measurement,setting,value
CCCCCCCCCCCCCC(O)CC(=O)NCC(=O)O (centres unmarked) [commendamine],pEC50,GPR132 [1],4.93
N[C@@H](CCS)C(=O)O [homocysteine],"C protein enzymatic activity, fold difference with vs without condensation enzyme",[2],2 fold
CCCCCCCCCCCC(=O)O [lauric acid],"inhibition on EBI2 (concentration-response, in words)",EBI2/GPR183,Neither lauric acid nor tryptamine showed inhibition
same,pIC50,EBI2/GPR183,< 4.00
same,pIC50,P2RY4,< 4.00
same,pEC50,GPR132 [3]; [4],4.60
CCCCCCCCCCCC(=O)NCCc1c[nH]c2ccccc12 [lauroyl tryptamine],pIC50,EBI2/GPR183,6.01
same,pIC50,P2RY4,< 4.00
same,pEC50,GPR132 [3]; [4],5.84
CCCCCCCC/C=C\CCCCCCCC(=O)NCCc1ccc(O)cc1 [oleoyl tyramine],activity on PRLHR in GPCR panel,PRLHR,shares activity
same,activity on NPSR1b in GPCR panel,NPSR1b,shares activity
NCCc1c[nH]c2ccccc12 [tryptamine],"inhibition on EBI2 (concentration-response, in words)",EBI2/GPR183,Neither lauric acid nor tryptamine showed inhibition
same,pEC50,GPR132 [3],< 4.00
oleoyl aminovaleric acid,inhibition of PTGER4 in GPCR panel,PTGER4,Inhibition was observed
